One assay addresses CSF1R (FMS) (Homo sapiens, UniProt P07333). The assay can be described thus: Z'-LYTE SelectScreen biochemical kinase assay CSF1R (FMS). From the text:
(§1) Thermo Fisher Scientific SelectScreen™ Biochemical Kinase Profiling Service Z′-LYTE™ Screening Protocol and Assay Conditions Assay Theory
(§2) The […] biochemical assay employs a fluorescence-based, coupled-enzyme format and is based on the differential sensitivity of phosphorylated and non-phosphorylated peptides to proteolytic cleavage. The peptide substrate is labeled with two fluorophores—one at each end—that make up a FRET pair. In the primary reaction, the kinase transfers the gamma-phosphate of ATP to a single tyrosine, serine or threonine residue in a synthetic FRET-peptide. In the secondary reaction, a site-specific protease recognizes and cleaves non-phosphorylated FRET-peptides. Phosphorylation of FRET-peptides suppresses cleavage by the Development Reagent. Cleavage disrupts FRET between the donor (i.e., coumarin) and acceptor (i.e., fluorescein) fluorophores on the FRET-peptide, whereas uncleaved, phosphorylated FRET-peptides maintain FRET. A ratiometric method, which calculates the ratio (Emission Ratio=Coumarin emission (445 nm)/Fluorescein emission (520 nm)) of donor emission to acceptor emission after excitation of the donor fluorophore at 400 nm, is used to quantitate reaction progress, as shown in the equation below. A significant benefit of this ratiometric method for quantitating reaction progress is the elimination of well-to-well variations in FRET-peptide concentration and signal intensities. As a result, the assay yields very high Z′-factor values (>0.7) at a low percent phosphorylation. Both cleaved and uncleaved FRET-peptides contribute to the fluorescence signals and therefore to the Emission Ratio. The extent of phosphorylation of the FRET-peptide can be calculated from the Emission Ratio. The Emission Ratio will remain low if the FRET-peptide is phosphorylated (i.e., no kinase inhibition) and will be high if the FRET-peptide is non-phosphorylated (i.e., kinase inhibition).
(§3) The Test Compounds are screened in 1% DMSO (final) in the well. For 10 point titrations, 3-fold serial dilutions are conducted from the starting concentration of the customer's choosing.
(§4) All Peptide/Kinase Mixtures are diluted to a 2× working concentration in the appropriate Kinase Buffer (see section Kinase Specific Assay Conditions for a complete description).
(§5) All ATP Solutions are diluted to a 4× working concentration in Kinase Buffer (50 mM HEPES pH 7.5, 0.01% BRIJ-35, 10 mM MgCl2, 1 mM EGTA). ATP Km apparent is previously determined using a Z″-LYTE assay.
(§6) The Development Reagent is diluted in Development Buffer (see section Kinase-Specific Assay Conditions—Direct and Cascade for a complete description).
(§7) Bar-coded Corning, low volume NBS, black 384-well plate (Corning Cat. #4514) • 1. 100 nL—100× Test Compound in 100% DMSO • 2. 2.4 μL—Kinase buffer • 3. 5 μL—2× Peptide/Kinase Mixture • 4. 2.5 μL—4×ATP Solution • 5. 30—second plate shake • 6. 60—minute Kinase Reaction incubation at room temperature • 7. 5 μL—Development Reagent Solution • 8. 30—second plate shake • 9. 60—minute Development Reaction incubation at room temperature • 10. Read on fluorescence plate reader and analyze the data Z′-LYTE Assay Controls
(§8) SelectScreen Kinase Profiling Service uses XLfit from IDBS. The dose response curve is curve fit to model number 205 (sigmoidal dose-response model).
The 2×CSF1R (FMS)/Tyr 01 mixture is prepared in 50 mM HEPES pH 7.5, 0.01% BRIJ-35, 10 mM MgCl2, 1 mM EGTA. The final 10 μL Kinase Reaction consists of 0.2-40 ng CSF1R (FMS) and 2 μM Tyr 01 in 50 mM HEPES pH 7.5, 0.01% BRIJ-35, 10 mM MgCl2, 1 mM EGTA. After the 1 hour Kinase Reaction incubation, 5 μL of a 1:256 dilution of Development Reagent B is added.

Another assay concerns the target KDR (VEGFR2) (Homo sapiens, UniProt P35968). The experiment in a line: Z'-LYTE SelectScreen biochemical kinase assay KDR (VEGFR2).
Excerpt: as §1, §2, §3, §4, §5, §6, §7, §8
The 2×KDR (VEGFR2)/Tyr 01 mixture is prepared in 50 mM HEPES pH 7.5, 0.01% BRIJ-35, 10 mM MgCl2, 1 mM EGTA. The final 10 μL Kinase Reaction consists of 1-30 ng KDR (VEGFR2) and 2 μM Tyr 01 in 50 mM HEPES pH 7.5, 0.01% BRIJ-35, 10 mM MgCl2, 1 mM EGTA. After the 1 hour Kinase Reaction incubation, 5 μL of a 1:256 dilution of Development Reagent B is added.

For a further assay, the target named is PTK2 (FAK) (Homo sapiens, UniProt Q05397). The experiment in a line: Z'-LYTE SelectScreen biochemical kinase assay PTK2 (FAK).
Sequence of PTK2 (FAK) (Q05397 whole entry): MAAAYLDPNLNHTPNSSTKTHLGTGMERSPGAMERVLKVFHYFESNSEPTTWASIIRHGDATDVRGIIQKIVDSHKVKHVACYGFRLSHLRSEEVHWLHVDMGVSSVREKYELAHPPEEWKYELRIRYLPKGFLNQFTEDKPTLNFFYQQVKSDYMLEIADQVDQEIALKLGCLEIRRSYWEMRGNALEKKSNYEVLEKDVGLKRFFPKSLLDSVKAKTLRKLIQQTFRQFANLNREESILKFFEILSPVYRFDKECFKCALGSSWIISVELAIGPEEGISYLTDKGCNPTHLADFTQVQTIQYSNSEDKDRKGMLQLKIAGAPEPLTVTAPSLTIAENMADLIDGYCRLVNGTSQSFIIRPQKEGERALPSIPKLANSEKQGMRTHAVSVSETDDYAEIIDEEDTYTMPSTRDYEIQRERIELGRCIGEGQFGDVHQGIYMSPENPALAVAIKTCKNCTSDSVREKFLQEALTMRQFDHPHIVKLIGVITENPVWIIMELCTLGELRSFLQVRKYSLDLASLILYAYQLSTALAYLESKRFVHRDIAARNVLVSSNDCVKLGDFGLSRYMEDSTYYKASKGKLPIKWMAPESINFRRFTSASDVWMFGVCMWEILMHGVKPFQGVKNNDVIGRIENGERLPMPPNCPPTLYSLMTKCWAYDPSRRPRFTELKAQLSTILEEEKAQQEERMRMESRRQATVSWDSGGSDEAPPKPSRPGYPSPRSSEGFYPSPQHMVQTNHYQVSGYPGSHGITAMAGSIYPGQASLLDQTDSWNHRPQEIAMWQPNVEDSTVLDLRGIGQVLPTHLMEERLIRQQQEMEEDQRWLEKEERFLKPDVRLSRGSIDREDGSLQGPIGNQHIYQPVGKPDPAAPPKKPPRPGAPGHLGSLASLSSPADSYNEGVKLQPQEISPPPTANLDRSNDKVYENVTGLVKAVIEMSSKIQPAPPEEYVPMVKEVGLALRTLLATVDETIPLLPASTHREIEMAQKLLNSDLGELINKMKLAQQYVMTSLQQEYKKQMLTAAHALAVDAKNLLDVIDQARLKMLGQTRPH
Excerpt: as §1, §2, §3, §4, §5, §6, §7, §8
The 2×PTK2 (FAK)/Tyr 07 mixture is prepared in 50 mM HEPES pH 7.5, 0.01% BRIJ-35, 10 mM MgCl2, 1 mM EGTA. The final 10 μL Kinase Reaction consists of 12.5-100 ng PTK2 (FAK) and 2 μM Tyr 07 in 50 mM HEPES pH 7.5, 0.01% BRIJ-35, 10 mM MgCl2, 1 mM EGTA. After the 1 hour Kinase Reaction incubation, 5 μL of a 1:16 dilution of Development Reagent B is added.

In another assay the target is CDK5/p35 (Homo sapiens, UniProt Q00535). The experiment in a line: Z'-LYTE SelectScreen biochemical kinase assay CDK5/p35.
Sequence of CDK5/p35 (Q00535 whole entry): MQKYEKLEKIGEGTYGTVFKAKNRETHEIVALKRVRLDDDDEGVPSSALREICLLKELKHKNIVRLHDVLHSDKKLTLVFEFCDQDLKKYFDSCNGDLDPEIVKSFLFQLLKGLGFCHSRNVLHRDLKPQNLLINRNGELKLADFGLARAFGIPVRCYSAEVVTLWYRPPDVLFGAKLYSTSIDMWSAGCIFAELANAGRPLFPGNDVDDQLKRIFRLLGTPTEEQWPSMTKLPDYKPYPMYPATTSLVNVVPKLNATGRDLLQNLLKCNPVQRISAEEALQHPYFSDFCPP
Sequence of CDK5/p35 (Q15078 whole entry partner): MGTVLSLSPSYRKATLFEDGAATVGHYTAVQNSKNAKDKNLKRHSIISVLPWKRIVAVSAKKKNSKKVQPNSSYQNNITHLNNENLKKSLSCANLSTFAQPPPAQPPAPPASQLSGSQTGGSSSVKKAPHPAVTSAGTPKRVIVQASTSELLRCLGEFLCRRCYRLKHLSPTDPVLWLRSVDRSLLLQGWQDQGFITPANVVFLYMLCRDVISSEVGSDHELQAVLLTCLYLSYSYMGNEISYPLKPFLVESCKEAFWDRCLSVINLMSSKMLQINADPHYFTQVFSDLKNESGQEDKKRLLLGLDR
Excerpt: as §1, §2, §3, §4, §5, §6, §7, §8
The 2×CDK5/p35/Ser/Thr 12 mixture is prepared in 50 mM HEPES pH 7.5, 0.01% BRIJ-35, 10 mM MgCl2, 1 mM EGTA. The final 10 μL Kinase Reaction consists of 0.14-1.3 ng CDK5/p35 and 2 μM Ser/Thr 12 in 50 mM HEPES pH 7.5, 0.01% BRIJ-35, 10 mM MgCl2, 1 mM EGTA. After the 1 hour Kinase Reaction incubation, 5 μL of a 1:4096 dilution of Development Reagent A is added.

The mark [1] stands for this setting: 10 μmolar compound concentration, ATP at Km app, read-out: CSF1R (FMS) inhibition.
The mark [2] stands for this setting: read-out: % Inhibition mean CSF1R (FMS).
Where [3] appears, read: 10 μmolar compound concentration, ATP at Km app, read-out: KDR (VEGFR2) inhibition.
Setting [4] is: read-out: % Inhibition mean KDR (VEGFR2).
The mark [5] stands for this setting: 10 μmolar compound concentration, ATP at Km app, read-out: PTK2 (FAK) inhibition.
Setting [6] is: read-out: % Inhibition mean PTK2 (FAK).
[7] abbreviates: 10 μmolar compound concentration, ATP at Km app, read-out: CDK5/p35 inhibition.
Where [8] appears, read: read-out: % Inhibition mean CDK5/p35.

Where two headings read alike, the source gives them in different places.

Results on 9 molecules are retold here after patent publication US11339161B2, “Triazolo pyridines as modulators of gamma-secretase” (Boehringer Ingelheim International GmbH, priority 2017, dated 2022).

Sequence of KDR (VEGFR2) (P35968 20-1356): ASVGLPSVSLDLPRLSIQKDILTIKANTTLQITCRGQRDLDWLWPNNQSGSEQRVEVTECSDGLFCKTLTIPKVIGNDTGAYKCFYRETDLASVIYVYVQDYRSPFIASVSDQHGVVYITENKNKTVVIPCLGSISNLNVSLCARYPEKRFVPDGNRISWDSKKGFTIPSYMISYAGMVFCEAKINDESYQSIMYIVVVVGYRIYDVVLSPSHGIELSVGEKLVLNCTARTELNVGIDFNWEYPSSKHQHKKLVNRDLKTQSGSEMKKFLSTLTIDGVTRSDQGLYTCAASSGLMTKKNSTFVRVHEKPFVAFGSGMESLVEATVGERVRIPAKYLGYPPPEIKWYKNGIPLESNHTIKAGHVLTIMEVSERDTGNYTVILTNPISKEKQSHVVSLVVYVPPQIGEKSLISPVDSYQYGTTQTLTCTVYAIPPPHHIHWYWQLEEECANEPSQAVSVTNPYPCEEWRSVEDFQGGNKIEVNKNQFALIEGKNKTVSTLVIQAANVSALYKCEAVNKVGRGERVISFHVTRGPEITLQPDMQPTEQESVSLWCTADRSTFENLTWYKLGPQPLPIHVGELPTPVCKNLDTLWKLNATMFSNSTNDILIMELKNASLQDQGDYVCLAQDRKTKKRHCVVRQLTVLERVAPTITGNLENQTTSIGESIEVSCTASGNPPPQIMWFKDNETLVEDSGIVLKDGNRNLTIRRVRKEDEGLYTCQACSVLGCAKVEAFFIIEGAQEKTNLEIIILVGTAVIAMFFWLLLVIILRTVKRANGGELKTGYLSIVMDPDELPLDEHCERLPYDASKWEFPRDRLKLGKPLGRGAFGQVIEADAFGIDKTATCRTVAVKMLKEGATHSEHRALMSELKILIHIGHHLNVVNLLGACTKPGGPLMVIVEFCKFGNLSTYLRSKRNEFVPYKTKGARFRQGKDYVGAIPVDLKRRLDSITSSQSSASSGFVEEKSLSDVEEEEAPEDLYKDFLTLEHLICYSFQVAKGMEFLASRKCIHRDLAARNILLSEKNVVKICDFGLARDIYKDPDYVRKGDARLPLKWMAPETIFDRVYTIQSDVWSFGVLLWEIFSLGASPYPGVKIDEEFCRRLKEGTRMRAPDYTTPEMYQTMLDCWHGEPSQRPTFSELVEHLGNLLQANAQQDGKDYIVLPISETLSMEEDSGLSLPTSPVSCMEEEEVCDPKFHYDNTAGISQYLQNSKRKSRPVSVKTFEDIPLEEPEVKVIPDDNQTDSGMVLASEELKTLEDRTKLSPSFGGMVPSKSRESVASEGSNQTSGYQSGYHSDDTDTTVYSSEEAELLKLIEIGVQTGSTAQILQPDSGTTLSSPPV
Sequence of CSF1R (FMS) (P07333 20-972): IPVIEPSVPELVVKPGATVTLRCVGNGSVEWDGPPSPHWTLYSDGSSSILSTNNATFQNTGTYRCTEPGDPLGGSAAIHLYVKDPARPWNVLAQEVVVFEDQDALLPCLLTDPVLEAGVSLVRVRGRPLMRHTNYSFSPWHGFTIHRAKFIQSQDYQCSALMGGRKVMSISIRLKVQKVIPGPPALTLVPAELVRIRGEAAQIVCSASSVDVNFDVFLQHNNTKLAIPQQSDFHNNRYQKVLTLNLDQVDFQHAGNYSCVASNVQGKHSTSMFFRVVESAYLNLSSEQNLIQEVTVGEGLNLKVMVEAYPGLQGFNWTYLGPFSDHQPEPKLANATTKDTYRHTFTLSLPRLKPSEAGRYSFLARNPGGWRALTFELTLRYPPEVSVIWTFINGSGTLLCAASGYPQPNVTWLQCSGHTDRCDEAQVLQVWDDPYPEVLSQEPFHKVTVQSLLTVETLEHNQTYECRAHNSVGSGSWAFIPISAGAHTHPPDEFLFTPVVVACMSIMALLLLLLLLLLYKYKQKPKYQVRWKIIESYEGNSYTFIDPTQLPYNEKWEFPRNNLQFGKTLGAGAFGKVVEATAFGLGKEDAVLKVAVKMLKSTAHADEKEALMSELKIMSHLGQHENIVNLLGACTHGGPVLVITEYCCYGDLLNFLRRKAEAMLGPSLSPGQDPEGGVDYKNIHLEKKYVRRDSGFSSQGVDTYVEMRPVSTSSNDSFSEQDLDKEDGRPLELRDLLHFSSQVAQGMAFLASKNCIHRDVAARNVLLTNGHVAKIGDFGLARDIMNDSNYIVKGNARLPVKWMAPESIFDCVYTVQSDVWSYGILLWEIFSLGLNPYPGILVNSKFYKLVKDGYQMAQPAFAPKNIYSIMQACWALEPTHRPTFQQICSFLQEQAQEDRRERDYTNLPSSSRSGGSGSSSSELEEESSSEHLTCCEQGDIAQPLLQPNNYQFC

In the case of `CCn1ncc2c1CCC(Nc1nc3c(-c4ccc(F)cc4C)cccn3n1)C2` (stereo not drawn) [Example 42, (1-Ethyl-4,5,6,7-tetrahydro-1H-indazol-5-yl)-[8-(4-fluoro-2-methyl-phenyl)-[1,2,4]triazolo[1,5-a]pyridine-2-yl]-amine], the inhibition at 10 µM on CSF1R (FMS) (setting [1]) is below 40%; on CSF1R (FMS) (setting [2]), 34%; on KDR (VEGFR2) (setting [3]), below 40%; on KDR (VEGFR2) (setting [4]) it was -3%; on PTK2 (FAK) (setting [5]), below 40%; on PTK2 (FAK) (setting [6]), 26%. The inhibition at 10 µM on CDK5/p35 (setting [7]) is below 40%; at CDK5/p35 (setting [8]), 39%.
With `CCn1ncc2c1CCC(Nc1nc3c(-c4cccc(Cl)c4)cccn3n1)C2` (stereo not drawn) [Example 59, [8-(3-Chloro-phenyl)-[1,2,4]triazolo[1,5-a]pyridine-2-yl]-(1-ethyl-4,5,6,7-tetrahydro-1H-indazol-5-yl)-amine], the inhibition at 10 µM at CSF1R (FMS) (setting [1]) was 40 to 80%; on CSF1R (FMS) (setting [2]) it was 42%; on KDR (VEGFR2) (setting [3]) it was below 40%; on KDR (VEGFR2) (setting [4]), -8%; at PTK2 (FAK) (setting [5]), below 40%; on PTK2 (FAK) (setting [6]), 16%. The inhibition at 10 µM at CDK5/p35 (setting [7]) was below 40%; at CDK5/p35 (setting [8]) it was 28%.
As to `CCn1ncc2c1CCC(Nc1nc3c(-c4ccccc4C)cccn3n1)C2` (stereo not drawn) [Example 56, (1-Ethyl-4,5,6,7-tetrahydro-1H-indazol-5-yl)-[8-(2-methyl-phenyl)-[1,2,4]triazolo[1,5-a]pyridine-2-yl]-amine], the inhibition at 10 µM at CSF1R (FMS) (setting [1]) is 40 to 80%; on CSF1R (FMS) (setting [2]), 58%; on KDR (VEGFR2) (setting [3]) it was below 40%; at KDR (VEGFR2) (setting [4]), 6%; on PTK2 (FAK) (setting [5]), below 40%; at PTK2 (FAK) (setting [6]) it was 15%. Also, the inhibition at 10 µM is 40 to 80% at CDK5/p35 (setting [7]) and 52% at CDK5/p35 (setting [8]).
As to `CCn1ncc2c1CCC(Nc1nc3c(-c4cccnc4)cccn3n1)C2` (stereo not drawn) [Example 63, (1-Ethyl-4,5,6,7-tetrahydro-1H-indazol-5-yl)-(8-pyridin-3-yl-[1,2,4]triazolo[1,5-a]pyridine-2-yl)-amine], the inhibition at 10 µM at CSF1R (FMS) (setting [1]) is 40 to 80%; on CSF1R (FMS) (setting [2]) it was 48%; on KDR (VEGFR2) (setting [3]) it was below 40%; on KDR (VEGFR2) (setting [4]) it was 8%; at PTK2 (FAK) (setting [5]) it was below 40%; at PTK2 (FAK) (setting [6]) it was 13%. For the same molecule, the inhibition at 10 µM at CDK5/p35 (setting [7]) was 40 to 80%; on CDK5/p35 (setting [8]) it was 47%.
Take `Cc1cc(F)ccc1-c1cccn2nc(NC3CCc4c(cnn4C(C)C)C3)nc12` (stereo not drawn) [Example 44, [8-(4-fluoro-2-methyl-phenyl)-[1,2,4]triazolo[1,5-a]pyridine-2-yl]-(1-isopropyl-4,5,6,7-tetrahydro-1H-indazol-5-yl)-amine]: the inhibition at 10 µM was 40 to 80% at CSF1R (FMS) (setting [1]); 43% on CSF1R (FMS) (setting [2]); below 40% at KDR (VEGFR2) (setting [3]); 3% on KDR (VEGFR2) (setting [4]); below 40% at PTK2 (FAK) (setting [5]); 15% on PTK2 (FAK) (setting [6]). Moreover, the inhibition at 10 µM on CDK5/p35 (setting [7]) was below 40%; at CDK5/p35 (setting [8]), 25%.
Take `CCn1nnc2c1CCC(Nc1nc3c(-c4ccc(F)cc4C)cccn3n1)C2` (stereo not drawn) [Example 51, (1-Ethyl-4,5,6,7-tetrahydro-1H-benzotriazol-5-yl)-[8-(4-fluoro-2-methyl-phenyl)-[1,2,4]triazolo[1,5-a]pyridine-2-yl]-amine]: the inhibition at 10 µM is below 40% on CSF1R (FMS) (setting [1]); 9% at CSF1R (FMS) (setting [2]); below 40% on KDR (VEGFR2) (setting [3]); -10% on KDR (VEGFR2) (setting [4]); below 40% on PTK2 (FAK) (setting [5]); 27% on PTK2 (FAK) (setting [6]). The values for the inhibition at 10 µM on CDK5/p35 (setting [7]) and on CDK5/p35 (setting [8]) were below 40% and 23%, respectively.
For `CCn1ncc2c1CCC(Nc1nc3c(-c4cncc(OC)c4)cccn3n1)C2` (stereo not drawn) [Example 70, (1-Ethyl-4,5,6,7-tetrahydro-1H-indazol-5-yl)-[8-(5-methoxy-pyridin-3-yl)-[1,2,4]triazolo[1,5-a]pyridine-2-yl]-amine], the inhibition at 10 µM at CSF1R (FMS) (setting [1]) was above 80%; on CSF1R (FMS) (setting [2]) it was 83%; at KDR (VEGFR2) (setting [3]), below 40%; on KDR (VEGFR2) (setting [4]), 12%; at PTK2 (FAK) (setting [5]), below 40%; at PTK2 (FAK) (setting [6]), 14%. The figures for the inhibition at 10 µM on CDK5/p35 (setting [7]) and on CDK5/p35 (setting [8]) were 40 to 80% and 58%, respectively.
With `CCn1ncc2c1CCC(Nc1nc3c(-c4ccc(OC)nc4)cccn3n1)C2` (stereo not drawn) [Example 71, (1-Ethyl-4,5,6,7-tetrahydro-1H-indazol-5-yl)-[8-(6-methoxy-pyridin-3-yl)-[1,2,4]triazolo[1,5-a]pyridine-2-yl]-amine], the inhibition at 10 µM at CSF1R (FMS) (setting [1]) is 40 to 80%; at CSF1R (FMS) (setting [2]), 62%; at KDR (VEGFR2) (setting [3]), below 40%; on KDR (VEGFR2) (setting [4]), 17%; at PTK2 (FAK) (setting [5]) it was below 40%; at PTK2 (FAK) (setting [6]), 30%. Moreover, the values for the inhibition at 10 µM on CDK5/p35 (setting [7]) and on CDK5/p35 (setting [8]) were 40 to 80% and 53%, respectively.
For `CCn1ncc2c1CC[C@@H](Nc1nc3c(-c4ccc(F)c(Cl)c4)cccn3n1)C2` [Example R-61, (R)-[8-(3-Chloro-4-fluoro-phenyl)-[1,2,4]triazolo[1,5-a]pyridine-2-yl]-(1-ethyl-4,5,6,7-tetrahydro-1H-indazol-5-yl)-amine], the inhibition at 10 µM on CSF1R (FMS) (setting [1]) is below 40%; at CSF1R (FMS) (setting [2]), 18%; at KDR (VEGFR2) (setting [3]), below 40%; at KDR (VEGFR2) (setting [4]), 2%; at PTK2 (FAK) (setting [5]), below 40%; at PTK2 (FAK) (setting [6]) it was 16%. Also, the inhibition at 10 µM on CDK5/p35 (setting [7]) is below 40%; at CDK5/p35 (setting [8]) it was 25%.
